# Source: PMC6410080 (Viruses, 2019)
# Structures can show the parent of a compound that is named as a salt. Where two headings read alike, the source gives them in different places.
# Tests used:
# ZIKV [1] = conditions: AG129 mice
# HeLa Kyoto cells [2] = system: HeLa Kyoto cells
# in vitro [3] = conditions: human, % viability (SFV screen)
# VSV VLP = assay: microbe, parasite or virus in culture; format: cell-based, vesicular stomatitis virus; conditions: read-out: IC50 VSV
# HIV-1 = assay: microbe, parasite or virus in culture; format: cell-based, human immunodeficiency virus type 1; conditions: read-out: IC50 HIV
# ZIKV [4] = assay: microbe, parasite or virus in culture; format: cell-based, Zika virus
# SFV [5] = assay: microbe, parasite or virus in culture; format: cell-based, Semliki Forest virus; conditions: for IC50: read-out: IC50 SFV (7 h); for inhibition at 10 µM: M-HeLa, 7 h, read-out: % inhibition (SFV screen); for % inhibition (SFV screen): 10 µM
# RABV VLP = assay: microbe, parasite or virus in culture; format: cell-based, rabies virus; conditions: read-out: IC50 RABV
# DENV-1 = assay: microbe, parasite or virus in culture; format: cell-based, dengue virus
# Huh7 cells [6] = conditions: human
# in vitro [7] = conditions: human
# viruses/VLPs tested = format: cell-based
# DENV-2 = DENV-2 infection assay / secondary screen (E protein staining); format: cell-based, dengue virus serotype 2; conditions: for inhibition at 10 µM: read-out: % inhibition (DENV-2 screen)
# YF17D = assay: organism not typed; format: cell-based, yellow fever 17D
# SINV = assay: microbe, parasite or virus in culture; format: cell-based, Sindbis virus; conditions: read-out: IC50 SINV
# [8] = system: Renilla luciferase expression (protein synthesis); format: cell-based
# H5N1 VLP = assay: microbe, parasite or virus in culture; format: cell-based, influenza H5N1; conditions: for IC50: Influenza A virus, H5N1, HeLa Kyoto, 48 h, read-out: IC50 H5N1
# EBOV VLP = assay: microbe, parasite or virus in culture; format: cell-based, Ebola virus
# HCV = assay: microbe, parasite or virus in culture; format: cell-based, hepatitis C virus
# HSV-1 = assay: microbe, parasite or virus in culture; format: cell-based, herpes simplex virus 1
# [9] = system: DID-labelled SFV hemifusion/fusion; format: cell-based, Semliki Forest virus; conditions: HeLa Kyoto, 10 μM (20 μM Raloxifene; Bafilomycin 100 nM), 40 min at 37 °C
# Huh7 cells [10] = assay: MTT assay, Huh7 cells; conditions: for TC50 DENV-2 (7 + 17 h): Huh7, compounds 7 h then compound-free media 17 h; for TC50 DENV-2 (24 h): Huh7, compounds 24 h
# SFV [11] = format: cell-based, Semliki Forest virus
# Huh7 cells [12] = conditions: 10 µM
# VACV = assay: microbe, parasite or virus in culture; format: cell-based, vaccinia virus; conditions: read-out: IC50 VACV
# DENV-3 = assay: microbe, parasite or virus in culture; format: cell-based, dengue virus
# HeLa Kyoto cells [13] = conditions: 10 µM
# [14] = Vesicular stomatitis virus, HeLa Kyoto, 24 h
# [15] = Human immunodeficiency virus 1, 24 h
# [16] = Zika virus, Huh-7, read-out: IC50 ZIKV
# [17] = Semliki Forest virus, HeLa Kyoto
# [18] = Lyssavirus rabies, HeLa Kyoto, 24 h
# [19] = Dengue virus, DENV1, Huh-7, read-out: IC50 DENV-1
# [20] = Dengue virus, DENV2, Huh-7, 24 h
# [21] = Dengue virus, DENV2, Huh-7, 24 h, read-out: IC50 DENV-2 (7 + 17 h)
# [22] = Dengue virus, DENV2, Huh-7, 24 h, read-out: IC50 DENV-2 (24 h)
# [23] = Hepatitis C virus, Huh7.5, read-out: IC50 HCV
structure (smiles),measurement,setting,value
CC(C)OC(=O)[C@H](C)N[P@](=O)(OC[C@H]1O[C@@H](n2ccc(=O)[nH]c2=O)[C@](C)(F)[C@@H]1O)Oc1ccccc1 [Sofosbuvir],Infectious virus in the blood at day 7 p.i.,ZIKV [1]; immunofocus assay,cleared infectious virus from the blood by day 7
same,ZIKV blood titres at day 1 p.i.,"ZIKV [1]; qRT-PCR and immunofocus assay, vs untreated",significantly reduced blood titres
CNc1ccc2oc(C[C@H]3O[C@@]4(CC[C@H]3C)O[C@H]([C@H](C)C(=O)c3ccc[nH]3)[C@H](C)C[C@H]4C)nc2c1C(=O)O [Calcimycin],TC50 SFV (7 h),HeLa Kyoto cells [2]; human,4.1 µM
same,TC50 SFV (7h),HeLa Kyoto cells [2]; human,4100 µM
same,viability at 10 µM,in vitro [3],34.4%
same,IC50,VSV VLP; [14],0.1 µM
same,IC50,HIV-1; [15],2.5 µM
same,IC50,ZIKV [4]; [16],17.1 µM
same,IC50,SFV [5]; [17],0.6 µM
same,inhibition at 10 µM,SFV [5]; Semliki Forest virus,91.4%
same,IC50,RABV VLP; [18],0.7 µM
same,IC50,DENV-1; [19],4.3 µM
same,TC50 DENV-2 (7 + 17 h),Huh7 cells [6],>50 µM
same,TC50 DENV-2 (24 h),Huh7 cells [6],6.7 µM
same,viability at 10 µM,in vitro [7],40%
same,Viruses Inhibited,viruses/VLPs tested,All tested
same,inhibition at 10 µM,DENV-2; [20],100%
same,IC50,DENV-2; [21],4.4 µM
same,IC50,DENV-2; [22],0.38 µM
same,IC50,"YF17D; Huh-7, read-out: IC50 YF17D",0.4 µM
same,IC50,"SINV; Sindbis virus, HeLa Kyoto",2.1 µM
same,Decrease of Renilla signal (protein synthesis),[8],more than 50%
same,Inhibition of protein synthesis at lower concentrations,[8],lose their inhibitory activity on protein synthesis
same,IC50,H5N1 VLP,0.4 µM
same,IC50,"EBOV VLP; Zaire ebolavirus, HeLa Kyoto, 48 h, read-out: IC50 EBOV",0.5 µM
same,IC50,HCV; [23],1.45 µM
same,IC50,"HSV-1; Human alphaherpesvirus 1, Vero, 8 h, read-out: IC50 HSV (Vero)",< 0.5 µM
CO/C1=C\C(C)=C\[C@@H](C)[C@@H](O)[C@@H](C)C/C(C)=C/C=C/[C@H](OC)[C@@H]([C@@H](C)[C@@H](O)[C@H](C)[C@@]2(O)C[C@@H](O)[C@H](C)[C@@H](C(C)C)O2)OC1=O [Bafilomycin],Inhibition of DID-SFV de-quenching (in words),[9],Strong inhibition of de-quenching
"CCCCc1oc2ccccc2c1C(=O)c1cc(I)c(OCCN(CC)CC)c(I)c1 [Amiodarone, Amiodarone hydrochloride]",TC50 DENV-2 (7 + 17 h),Huh7 cells [10],40.6 µM
same,TC50 DENV-2 (24 h),Huh7 cells [10],~25.5 µM
same,Inhibition of DID-SFV de-quenching (in words),[9],Intermediate levels of inhibition
same,inhibition at 10 µM,SFV [5]; Semliki Forest virus,85.5%
same,Activity when added before SFV or 30 and 60 min after internalisation,SFV [11],act exclusively before (or at the stage of) fusion
same,Time of Addition,SFV [11],Before fusion
same,Viruses Inhibited,viruses/VLPs tested,Endosomal pH-dep.
same,inhibition at 10 µM,DENV-2; [20],92.9%
"Cc1ccc(S(=O)(=O)N[C@@H](Cc2ccccc2)C(=O)CCl)cc1 [N-p-Tosyl-L-PCK, N-p-Tosyl-L-phenylalanine chloromethyl ketone]",TC50 SFV (7 h),HeLa Kyoto cells [2],42.7 µM
same,TC50 SFV (7h),HeLa Kyoto cells [2],42700 µM
same,IC50,VSV VLP,11.5 µM
same,IC50,HIV-1,12.5 µM
same,TC50 DENV-2 (7 + 17 h),Huh7 cells [10],24.2 µM
same,TC50 DENV-2 (24 h),Huh7 cells [10],31.7 µM
same,IC50,ZIKV [4]; read-out: IC50 ZIKV,24.3 µM
same,% inhibition (SFV screen),SFV [5],82.34%
same,IC50,SFV [5],10.7 µM
same,IC50,RABV VLP,15 µM
same,% viability (DENV-2 screen),Huh7 cells [12],58.91%
same,IC50,VACV,14.4 µM
same,IC50,DENV-1; read-out: IC50 DENV-1,25.6 µM
same,IC50,DENV-3; read-out: IC50 DENV-3,24.2 µM
same,Activity when added before SFV or 30 and 60 min after internalisation,SFV [11],act exclusively before (or at the stage of) fusion
same,Time of Addition,SFV [11],Before fusion
same,% viability (SFV screen),HeLa Kyoto cells [13],95.24%
same,Viruses Inhibited,viruses/VLPs tested,Unclear pattern
same,% inhibition (DENV-2 screen),"DENV-2; 10 µM, Huh7, MOI 1, 24 h, compared to DMSO-treated controls",60.35%
same,IC50,"DENV-2; Huh7, compounds 7 h then media replaced for 17 h, read-out: IC50 DENV-2 (7 + 17 h)",19.6 µM
same,IC50,"DENV-2; Huh7, compounds for entire 24 h, read-out: IC50 DENV-2 (24 h)",7.5 µM
same,IC50,YF17D; read-out: IC50 YF17D,4.6 µM
same,IC50,SINV,11.9 µM
same,Decrease of Renilla signal (protein synthesis),[8],more than 50%
same,Inhibition of protein synthesis at lower concentrations,[8],partially inhibits protein synthesis but not virus infection
same,IC50 H5N1,H5N1 VLP,No inhibition
same,IC50 EBOV,EBOV VLP,No inhibition
same,IC50,HCV; read-out: IC50 HCV,~13 µM
same,IC50 HSV (Vero),HSV-1,No inhibition
C=C1C(=O)O[C@H]2[C@H]1CC/C(C)=C/CC[C@@]1(C)O[C@@H]21 [Parthenolide],TC50 SFV (7 h),"HeLa Kyoto cells [2]; human, 7 h",11.7 µM
same,TC50 SFV (7h),"HeLa Kyoto cells [2]; human, 7 h",11700 µM
same,viability at 10 µM,in vitro [3],56.8%
same,IC50,VSV VLP; [14],2.6 µM
same,IC50,HIV-1; [15],3.7 µM
same,IC50,ZIKV [4]; [16],6.1 µM
same,% inhibition (SFV screen),SFV [5],98.23%
same,IC50,SFV [5]; [17],3.3 µM
same,inhibition at 10 µM,SFV [5]; Semliki Forest virus,101%
same,IC50,RABV VLP; [18],3.8 µM
same,IC50,"VACV; Orthopoxvirus vaccinia, HeLa Kyoto, 8 h",5 µM
same,IC50,DENV-1; [19],10 µM
same,TC50 DENV-2 (7 + 17 h),Huh7 cells [6],35.8 µM
same,TC50 DENV-2 (24 h),Huh7 cells [6]; 24 h,11.9 µM
same,IC50,"DENV-3; Dengue virus, DENV3, Huh-7, read-out: IC50 DENV-3",15.8 µM
same,viability at 10 µM,in vitro [7],71.4%
same,Activity when added before SFV or 30 and 60 min after internalisation,SFV [11],minor but reproducible decrease in activity
same,Time of Addition,SFV [11],Before and after fusion
same,% viability (SFV screen),HeLa Kyoto cells [13]; human,74.22%
same,Viruses Inhibited,viruses/VLPs tested,Unclear pattern
same,inhibition at 10 µM,DENV-2; [20],91.2%
same,IC50,DENV-2; [21],12.2 µM
same,IC50,DENV-2; [22],7.5 µM
same,IC50,"YF17D; Huh-7, read-out: IC50 YF17D",6.4 µM
same,IC50,"SINV; Sindbis virus, HeLa Kyoto",3.2 µM
same,IC50,H5N1 VLP,19.4 µM
same,IC50 EBOV,EBOV VLP,Toxic
same,IC50,HCV; [23],5.6 µM
same,IC50 HSV (Vero),"HSV-1; virus, Vero cells, 8 h",No inhibition
